Values of other authors as cited in patent publication US11504333B2, “Pharmaceutical composition” (NOVARTIS AG, priority 2017, dated 2022).
“Also recorded” adds a separate entry of the source. Like-named read-outs stand apart in the source and are kept apart here.

Experiments:
[1] = not given; remark: listed apart in the source

CC(C)(C)c1nc(-c2cccc(NS(=O)(=O)c3c(F)cccc3F)c2F)c(-c2ccnc(N)n2)s1.CS(=O)(=O)O [Compound A, N-{3-[5-(2-Amino-4-pyrimidinyl)-2-(1,1-dimethylethyl)-1,3-thiazol-4-yl]-2-fluorophenyl}-2,6-difluorobenzenesulfonamide, methanesulfonate salt]
Solubility (general) (aqueous, methanesulfonate salt): low solubility; also recorded: poor aqueous solubility
Solubility (slightly acidic, neutral pH, and basic media): practically insoluble
Solubility (strongly acidic aqueous media): very slightly soluble
Permeability [1]: high permeability
